{
  "source": "ChEMBL document CHEMBL4359832",
  "about": "“Fragment-Based Discovery of Novel Potent Sepiapterin Reductase Inhibitors” (J Med Chem, 2019)",
  "data": [
    {"assay": "physchem", "details": "buffer, pH 7.4", "values": [
      {"smiles": "O=C(c1ncc(Cl)cc1O)N1CCC2(CCC2)C1", "logD": 4.9},
      {"smiles": "O=C(c1c(O)cc(Cl)cc1Cl)N1CCC(Cc2ccccc2)C1", "note": "(stereo not drawn)", "logD": 3.8},
      {"smiles": "CC1Cc2ccccc2N1C(=O)c1c(O)cc(Cl)cc1Cl", "note": "(stereo not drawn)", "logD": 3.5},
      {"smiles": "COc1cc(Cl)cc(Cl)c1C(=O)N1CCC2(CCC2)C1", "logD": 4},
      {"smiles": "O=C(c1c(O)cncc1Cl)N1CCC2(CCC2)C1", "logD": 1.2},
      {"smiles": "O=C(c1c(O)cc(Cl)cc1Cl)N1CCC(c2cccnc2)C1", "note": "(racemic)", "logD": 1.7},
      {"smiles": "O=C(c1c(O)cc(Cl)cc1Cl)N1CCCC2(CCC2)C1", "logD": 3.7},
      {"smiles": "Cn1cc(C2CCN(C(=O)c3c(O)cc(Cl)cc3Cl)C2)cn1", "note": "(racemic)", "logD": 1.6}
    ]}
  ]
}
